Data reported in patent US20100129344A1, “MEDICAL USES AND THERAPIES BASED UPON THE ACTION OF AZUROCIDIN ON IGFBP-1” (priority 2005, published 2010).
“Also recorded” adds a separate entry of the source. Read-outs that look alike come from different tables or passages of the source. Where a SMILES comes first, the peptide text is derived from it. [ ]: non-standard residue; d: D form. The star is where a group is joined. Sta = CC(C)C[C@H](N)[C@@H](O)CC(=O)O; Isovaleryl = CC(C)CC(=O)*

What was measured:
[1] = system: urinary protease activity at neutral pH (IGFBP-1 proteolysis); assay: Effect of protease inhibitors, divalent cations and peptides on urinary protease activity at neutral pH (radioiodinated npIGFBP-1, SDS-PAGE, autoradiography); assay type: biochemical, human; details: for effect on proteolysis in urine: not shown; for effect of peptides on IGFBP-1 proteolysis: increasing concentrations pre-incubated with npIGFBP-1 30 min 22 C, then 0.5 μl urine 2 h 37 C (FIG. 8A)
Description: A: Effect of 100 μM pepstatin A, 10 μM E64, 2.5 mM leupeptin, 10 mM PMSF, 100 μM aprotinin, 2.5 mM kallikrein inhibitor and benzamidine (mM) and chymostatin (μM). Molecular mass markers are indicated by the arrows. B: Densitometry measurements of intact IGFBP-1. The results are the mean±SEM, pooled from 6-8 experiments. […] The mean effect of urine pooled from all the experiments is shown in the open bar. *, P<0.05; ** P<0.01 (paired t-test);
(§1) Urine, 0.5 μl, was added and the incubation continued for 2 h at 37 C. The fragments were separated by 14% SDS-PAGE and detected by autoradiography. Molecular mass markers are indicated by the arrows. B: Biotinylated recombinant pIGFBP-1 was bound to streptavidin coated plates and then incubated without (open squares) or with 100 ng IGF-I (closed circles) or des(1-3)IGF-I (open circles). Wells were then incubated with increasing concentration of partially purified azurocidin at […] for 2-h at 37 C. After acidification of all wells, including controls, with 1 M HCl to dissociate bound peptides, radioiodinated IGF-I was added for 2 h at 22 C, unbound tracer was removed by washing, and the bound counts determined;
IGFBP-1 was radioiodinated with ^125I using the chloramine T method. After incubation without and with protease in phosphate buffered saline, pH 7 at 37 C, fragments were separated on 14% non-reducing SDS-PAGE, the gel dried, and visualized by autoradiography.

[2] = system: MCF-7 human breast cancer cells; assay: 3H-Thymidine incorporation; assay type: cell-based; details: IGF-II 10 ng/ml, 24 h, serum-free; 6 experiments
Description: Cell studies. MCF-7 human breast cancer cells were maintained in MEM alpha ribonucleic acid-free medium supplemented with 10% foetal bovine serum, 50 Unit/ml penicillin sodium, 50 μg/ml streptomycin sulfate and 2 mM L-glutamine at 37C in 5% CO2 humidified environment.
3H-Thymidine incorporation: Experiments were carried out in 48-well plates, at 70% confluence. After a 20-h incubation in serum-free medium supplemented with 0.1% BSA, the experimental conditions were added for a further 24 h, with ^3H-thymidine (1 μCi/ml) added for the last 4 h. Cells were then washed with ice-cold 0.9% NaCl three times and incubated with ice-cold 5% TCA for 15 min at 22 C. The fixed nucleotides were solubilized in 0.1M NaOH at 22 C and subjected to liquid scintillation counting.
Statistical analyses. The effect of IGF-II and IGFBP-1 in muscle cell culture was analyzed by two-way ANOVA. Where significant differences were observed, comparisons were made using the Tukey test. In the study using MCF-7 breast cancer cells the Wolcoxon Matched Pairs test was used. Statistical significance was set at P<0.05.

[3] = system: primary human skeletal myotubes; assay: 2-Deoxyglucose transport (glucose uptake); assay type: cell-based; details: IGF-II 10 ng/ml (submaximal), 90 min
Description: Primary human skeletal myotubes were incubated under serum-free conditions for 24 h. Glucose uptake was determined as described in the Methods. The results are the mean±SEM of four experiments using cells from different individuals each with 3 replicates; and are expressed as the percentage of uptake in the absence of IGF-II or IGFBP-1 for each. The effect of IGF-II is shown in the hatched bars. The effect of pIGFBP-1 on stimulation of glucose uptake by 10 ng/ml IGF-II was analyzed by 2-way ANOVA for each of the 20 ng/ml and 80 ng/ml concentrations; *, P<0.01, **, P<0.001, compared to no IGF-II; ††, P<0.001, compared to no IGFBP-1 or intact IGFBP-1. […]
2-Deoxyglucose transport: Glucose uptake was performed as previously described for primary human muscle cells (Bouzakri et al, Diabetologia, 47, 1314-1323, 2004). […] Cells were then washed four times with pre-warmed buffer (150 mmol/l NaCl, […] KCl, 1.2 mmol/l MgSO4, 1.2 mmol/l CaCL2, 2.5 mmol/l NaH2PO4, 10 mmol/l HEPES, pH 7.4) and glucose uptake was measured for 15 min using [3H]2-deoxyglucose (50 μmol/l, 14,800 Bq/well). Results were expressed as the percentage of glucose uptake in the absence of IGF-II or IGFBP-1.
Statistical analyses. The effect of IGF-II and IGFBP-1 in muscle cell culture was analyzed by two-way ANOVA. […]

[4] = system: acid-activated IGFBP-1 protease activity in human urine; assay: Effect of pepstatin on urinary IGFBP-1 protease activity at pH 2 (streptavidin plate, IGF-II binding); assay type: biochemical; details: pepstatin A 10 μM, pH 2, 5 μl urine, 2 h, 37 C
Description: (§2) A-D: Radioiodinated recombinant npIGFBP-1 was subjected to 14% SDS-PAGEalone (*) or after proteolysis for 2 h at 37 C with 0.5 μl urine or 0.25 μl eluate, and the fragments detected by autoradiography. Molecular mass markers are indicated by the arrows. A: pH-dependence of urinary IGFBP-1 protease activity. B: Urine, flowthrough (FT) from the heparin affinity column, and eluate at pH 2 and 7. C: pHdependence of eluate from heparin affinity chromatography. D: Acid-activated protease activity is destroyed by neutralization. Radioiodinated pIGFBP-1 was incubated without (*) and with 0.5 μl urine for 2 h at 37 C at pH 2. Prior to incubation the urine was either untreated (lane a), adjusted to pH 2 for 15 min (lane B) or adjusted to pH 2 for 15 min and then to pH 7 for a further 15 min (lane C). E: Effect of pepstatin. […] The wells were washed, incubated with radioiodinated IGF-II for 2 h at 22 C, washed, and the bound counts detected;
(§3) IGFBP-1 was biotinylated with sulfo-NHS-LC-LC-biotin and bound to streptavidin coated plates, then incubated without and with protease in phosphate buffered saline, pH 7 at 37 C. After washing, IGF-binding fragments were determined by incubation with radioiodinated IGF-I for 2 h at 22 C. Unbound tracer was removed by washing, and the bound counts determined.

[5] = system: neutral IGFBP-1 protease activity in human urine; assay: Effect of pepstatin on urinary IGFBP-1 protease activity at pH 7 (streptavidin plate, IGF-II binding); assay type: biochemical; details: pepstatin A 10 μM, pH 7, 5 μl urine, 2 h, 37 C
Description: as §2, §3

[6] = system: azurocidin-dependent protease activity; assay: Azurocidin-dependent protease activity on plate-bound biotinylated pIGFBP-1 with pre-bound peptides; assay type: biochemical, human; details: 100 ng peptide on plate-bound pIGFBP-1, partially purified azurocidin, 2 h, 37 C (FIG. 8B)
Description: as §1, §3

[7] = 10 mM cation, pH 7, 0.5 μL urine, 2 h, 37 C

## [Ca+2].[Cl-].[Cl-] [CaCl2]
[1]; [7]
  effect of divalent metal cations on proteolysis (densitometry of intact IGFBP-1): significant promoting effect

## aprotinin
[1]; 100 μM aprotinin (FIG. 7A), pH 7, different experiments
  effect of aprotinin on protease activity (IGFBP-1 proteolysis): either without effect, or even promoted protease activity; also recorded: increasing IGFBP-1 proteolysis

## O=C(O)CN(CCOCCOCCN(CC(=O)O)CC(=O)O)CC(=O)O [EGTA]
[1]; data not shown
  effect on the degree of IGFBP-1 degradation: no effect

## Cc1ccc(S(=O)(=O)N[C@@H](Cc2ccccc2)C(=O)CCl)cc1 [TPCK]
[1]; 1 mM
  effect on proteolysis in urine: inhibited

## O=S(=O)(F)Cc1ccccc1 [PMSF]
[1]; 10 mM, pH 7, 0.5 μL urine, 2 h, 37 C
  effect on protease activity in urine: inhibited

## IGF-I: recombinant human insulin-like growth factor I
[1]
  effect of peptides on IGFBP-1 proteolysis: Partial inhibition

## IGF-II: human insulin-like growth factor II
[1]
  effect of peptides on IGFBP-1 proteolysis: Partial inhibition
[2]
  stimulation of 3H-thymidine incorporation: 2 fold
[3]
  stimulation of glucose uptake: more than 2 fold

## insulin
[1]
  effect of peptides on IGFBP-1 proteolysis: no effect

## [Cl][Ni][Cl] [NiCl2]
[1]; [7]
  effect of divalent metal cations on proteolysis (densitometry of intact IGFBP-1): inhibited

## O=C(O)CN(CCN(CC(=O)O)CC(=O)O)CC(=O)O [EDTA]
[1]
  effect on the degree of IGFBP-1 degradation: no effect

## Cc1ccc(S(=O)(=O)N[C@@H](CCCCN)C(=O)CCl)cc1 [TLCK]
[1]; concentration not given
  effect on proteolysis in urine: did not

## CC(C)CC(=O)N[C@H](C(=O)N[C@H](C(=O)N[C@@H](CC(C)C)[C@@H](O)CC(=O)N[C@@H](C)C(=O)N[C@@H](CC(C)C)[C@@H](O)CC(=O)O)C(C)C)C(C)C [pepstatin, pepstatin A] (Isovaleryl-VV[Sta]A[Sta]-OH)
[4]
  effect on acid-activated urinary IGFBP-1 protease activity: inhibits
[5]
  effect on neutral urinary IGFBP-1 protease activity: not the neutral activity

## [Cl][Cu][Cl] [CuCl2]
[1]; [7]
  effect of divalent metal cations on proteolysis (densitometry of intact IGFBP-1): inhibited

## c1cnc2c(c1)ccc1cccnc12 [1,10-phenothroline]
[1]; data not shown
  effect on the degree of IGFBP-1 degradation: no effect

## CC(C)C[C@H](NC(=O)[C@@H](NC(=O)N[C@@H](Cc1ccccc1)C(=O)O)[C@@H]1CCN=C(N)N1)C(=O)N[C@H](C=O)Cc1ccccc1 [chumostatin]
[1]; 10 μM, pH 7, 0.5 μL urine, 2 h, 37 C
  effect on protease activity in urine: inhibited

## des(1-3)-IGF-I: truncated IGF-I from GroPep
[6]
  effect of peptide on IGFBP-1 proteolysis: no effect

## cyclohexylacetyl-Phe-Arg-Ser-Val-Gln [kallikrein inhibitor]
[1]; 100 μM, pH 7, 0.5 μL urine, 2 h, 37 C
  effect on protease activity in urine: inhibited

## [Cl-].[Cl-].[Co+2] [CoCl2]
[1]; pH 7
  effect of divalent metal cations on proteolysis (densitometry of intact IGFBP-1): inhibited
